Results as given in patent US4476120A, “Thiolic derivatives of erythromycin having therapeutic activity, and pharmaceutical compositions containing them” (Sigma Tau Indistrie Farmaceutiche Riunites, p.A, priority 1982, dated 1984).
Values after ≈ are worked out from the molar mass of the structure shown.

Assays:
Staph. albus SS 03 = type: cell-based; conditions: Brain Heart Infusion, estolate and RV11-RV15 previously hydrolized, unit assumed
Staph. albus SS 04 = type: cell-based; conditions: Brain Heart Infusion, estolate and RV11-RV15 previously hydrolized, unit assumed
Staph. aureus SS 07 [1] = type: cell-based; conditions: Brain Heart Infusion, estolate and RV11-RV15 previously hydrolized, unit assumed
Staph. aureus SS 08 = type: cell-based; conditions: Brain Heart Infusion, estolate and RV11-RV15 previously hydrolized, unit assumed
Staph. aureus SS 09 = type: cell-based; conditions: Brain Heart Infusion, estolate and RV11-RV15 previously hydrolized, unit assumed
Staph. aureus SS 10 = type: cell-based; conditions: Brain Heart Infusion, estolate and RV11-RV15 previously hydrolized, unit assumed
[2] = system: Strept. haemolyticus SS 17; type: cell-based; conditions: Brain Heart Infusion, estolate and RV11-RV15 previously hydrolized, unit assumed
[3] = system: Strept. haemolyticus SS 18; type: cell-based; conditions: Brain Heart Infusion, estolate and RV11-RV15 previously hydrolized, unit assumed
Strept. faecalis SS 19 = type: cell-based; conditions: Brain Heart Infusion, estolate and RV11-RV15 previously hydrolized, unit assumed
S. lutea ATCC 9341 = type: cell-based; conditions: Brain Heart Infusion, estolate and RV11-RV15 previously hydrolized, unit assumed
B. subtilis ATCC 6633 = type: cell-based; conditions: Brain Heart Infusion, estolate and RV11-RV15 previously hydrolized, unit assumed
B. subtilis SS 127 = type: cell-based; conditions: Brain Heart Infusion, estolate and RV11-RV15 previously hydrolized, unit assumed
B. cereus ATCC 11778 = type: cell-based; conditions: Brain Heart Infusion, estolate and RV11-RV15 previously hydrolized, unit assumed
B. anthranis SS 08 = type: cell-based; conditions: Brain Heart Infusion, estolate and RV11-RV15 previously hydrolized, unit assumed
Br. melitensis SS 19 = type: cell-based; conditions: unit assumed
Br. abortus SS 7 = type: cell-based; conditions: Brain Heart Infusion, estolate and RV11-RV15 previously hydrolized, unit assumed
Citrobacter SS 05 = type: cell-based; conditions: Brain Heart Infusion, estolate and RV11-RV15 previously hydrolized, unit assumed
Citrobacter SS 09 = type: cell-based; conditions: Brain Heart Infusion, estolate and RV11-RV15 previously hydrolized, unit assumed
S. infantis SS 08 = type: cell-based; conditions: Brain Heart Infusion, estolate and RV11-RV15 previously hydrolized, unit assumed
S. heidelberg SS 18 = type: cell-based; conditions: Brain Heart Infusion, estolate and RV11-RV15 previously hydrolized, unit assumed
E. cloacae SS 07 = type: cell-based; conditions: Brain Heart Infusion, estolate and RV11-RV15 previously hydrolized, unit assumed
Ps. aeruginosa SS 10 = type: cell-based; conditions: Brain Heart Infusion, estolate and RV11-RV15 previously hydrolized, unit assumed
E. coli SS 04 = type: cell-based; conditions: Brain Heart Infusion, estolate and RV11-RV15 previously hydrolized, unit assumed
E. coli SS 05 = type: cell-based; conditions: Brain Heart Infusion, estolate and RV11-RV15 previously hydrolized, unit assumed
E. coli SS 06 = type: cell-based; conditions: Brain Heart Infusion, estolate and RV11-RV15 previously hydrolized, unit assumed
Pr. mirabilis SS 09 = type: cell-based; conditions: Brain Heart Infusion, estolate and RV11-RV15 previously hydrolized, unit assumed
Kl. aerogenes SS 71 = type: cell-based; conditions: Brain Heart Infusion, estolate and RV11-RV15 previously hydrolized, unit assumed
H. tubercolosis SS 03 = type: cell-based; conditions: Brain Heart Infusion, estolate and RV11-RV15 previously hydrolized, unit assumed
Text: (§1) In the following table I the MIC/ml values are indicated corresponding to the lowest concentration capable of inducing a complete inhibition of the bacterial development.

Kl. pneumoniae SS 04 = type: cell-based; conditions: Brain Heart Infusion, estolate and RV11-RV15 previously hydrolized, unit assumed
Text: as §1

Sr. marcescens SS 03 = type: cell-based; conditions: Brain Heart Infusion, estolate and RV11-RV15 previously hydrolized, unit assumed
C. diphtheriae SS 19 = type: cell-based; conditions: Brain Heart Infusion, estolate and RV11-RV15 previously hydrolized, unit assumed
D. pneumoniae SS 23 [4] = type: cell-based; conditions: Brain Heart Infusion, estolate and RV11-RV15 previously hydrolized, unit assumed
N. gonorreae SS 27 = type: cell-based; conditions: Brain Heart Infusion, estolate and RV11-RV15 previously hydrolized, unit assumed
N. meningitidis SS 04 = type: cell-based; conditions: Brain Heart Infusion, estolate and RV11-RV15 previously hydrolized, unit assumed
H. influentiae SS 02 = type: cell-based; conditions: Brain Heart Infusion, estolate and RV11-RV15 previously hydrolized, unit assumed
Cl. tetani SS 17 = type: cell-based; conditions: Brain Heart Infusion, estolate and RV11-RV15 previously hydrolized, unit assumed
B. anthranis SS 09 = type: cell-based; conditions: B. anthranis SS 09 (14 bis); Brain Heart Infusion; estolate and RV11-RV15 previously hydrolized; unit assumed
Acute toxicity = type: in vivo; conditions: mouse, in vivo, po, 14400 min
Description: The acute toxicity was assessed in Swiss white mice by oral and intravenous route. The LD50 values have been calculated by the methods of Probits, starting from the mortality recorded 10 days after the treatment.

Staph. aureus SS 07 [5] = test: Experimental infection induced by Staph. aureus SS 07; type: in vivo, Swiss white mice; conditions: os; Staph. aureus SS 07; mg/kg of erythromycin; survival after 7 days; 10080 min
Description: (§2) Swiss white mice of 20 g body weight were used, infected by parenteral administration of lethal amounts of pathogenic […] of Staph. aureus SS 07 and D. pneumoniae SS 23.
(§3) The antibiotics were administered at the time of injecting the infecting germ and 6 and 24 hours later. On the basis of the survival after 7 days, the ED50 values were determined, as reported in the following table II and III, wherein the reliability limits are indicated in brackets.

D. pneumoniae SS 23 [6] = test: Experimental infection induced by D. pneumoniae SS 23; type: in vivo, Swiss white mice; conditions: os; D. pneumoniae SS 23; mg/kg of erythromycin; survival after 7 days; 10080 min
Description: as §2, §3

[7] = Mucolytic activity: obstruction of the bronchial tract after SO2 inhalation; type: in vivo, Sprague Dawley male rats; conditions: oral, 500 mg/kg; SO2, 15 days
[8] = Histological examination of bronchi after SO2 inhalation; type: in vivo, Sprague Dawley male rats; conditions: oral, 500 mg/kg

CCC(=O)O[C@H]1[C@H](O[C@@H]2[C@@H](C)[C@H](O[C@H]3C[C@@](C)(OC)[C@@H](O)[C@H](C)O3)[C@@H](C)C(=O)O[C@H](CC)[C@@](C)(O)[C@H](O)[C@@H](C)C(=O)[C@H](C)C[C@@]2(C)O)O[C@H](C)C[C@@H]1N(C)C [RV13, erythromycin-monopropionate-thiazolidin-carboxylate]
MIC (Staph. albus SS 03): 0.05 µg/mL (≈ 0.0633 µM)
MIC (Staph. albus SS 04): 0.025 µg/mL (≈ 0.0316 µM)
MIC (Staph. aureus SS 07 [1]): 0.025 µg/mL (≈ 0.0316 µM)
MIC (Staph. aureus SS 08): 0.05 µg/mL (≈ 0.0633 µM)
MIC (Staph. aureus SS 09): 0.1 µg/mL (≈ 0.127 µM)
MIC (Staph. aureus SS 10): 0.1 µg/mL (≈ 0.127 µM)
MIC [2]: 1.5 µg/mL (≈ 1.9 µM)
MIC [3]: 1.5 µg/mL (≈ 1.9 µM)
MIC (Strept. faecalis SS 19): 0.05 µg/mL (≈ 0.0633 µM)
MIC (S. lutea ATCC 9341): 0.025 µg/mL (≈ 0.0316 µM)
MIC (B. subtilis ATCC 6633): 0.025 µg/mL (≈ 0.0316 µM)
MIC (B. subtilis SS 127): 0.025 µg/mL (≈ 0.0316 µM)
MIC (B. cereus ATCC 11778): 0.8 µg/mL (≈ 1.01 µM)
MIC (B. anthranis SS 08): 0.4 µg/mL (≈ 0.506 µM)
MIC (Br. melitensis SS 19): 3 µg/mL (≈ 3.8 µM)
MIC (Br. abortus SS 7): 6 µg/mL (≈ 7.59 µM)
MIC (Citrobacter SS 05): > 200 µg/mL
MIC (Citrobacter SS 09): > 200 µg/mL
MIC (S. infantis SS 08): 100 µg/mL (≈ 127 µM)
MIC (S. heidelberg SS 18): 100 µg/mL (≈ 127 µM)
MIC (E. cloacae SS 07): > 200 µg/mL
MIC (Ps. aeruginosa SS 10): 100 µg/mL (≈ 127 µM)
MIC (E. coli SS 04): 100 µg/mL (≈ 127 µM)
MIC (E. coli SS 05): 50 µg/mL (≈ 63.3 µM)
MIC (E. coli SS 06): 50 µg/mL (≈ 63.3 µM)
MIC (Pr. mirabilis SS 09): > 200 µg/mL
MIC (Kl. aerogenes SS 71): 100 µg/mL (≈ 127 µM)
MIC (H. tubercolosis SS 03): 50 µg/mL (≈ 63.3 µM)
MIC (Kl. pneumoniae SS 04): 100 µg/mL (≈ 127 µM)
MIC (Sr. marcescens SS 03): 100 µg/mL (≈ 127 µM)
MIC (C. diphtheriae SS 19): 0.01 µg/mL (≈ 0.0127 µM)
MIC (D. pneumoniae SS 23 [4]): 0.025 µg/mL (≈ 0.0316 µM)
MIC (N. gonorreae SS 27): 0.8 µg/mL (≈ 1.01 µM)
MIC (N. meningitidis SS 04): 0.8 µg/mL (≈ 1.01 µM)
MIC (H. influentiae SS 02): 1.5 µg/mL (≈ 1.9 µM)
MIC (Cl. tetani SS 17): 0.2 µg/mL (≈ 0.253 µM)
MIC (B. anthranis SS 09): 0.4 µg/mL (≈ 0.506 µM)
LD50 (reliability limits) (Acute toxicity): 3000 mg·kg
ED50 (reliability limits) (Staph. aureus SS 07 [5]): 2.20 (2.44-1.99) mg/kg
ED50 (reliability limits) (D. pneumoniae SS 23 [6]): 113.88 (144.73-89.60) mg/kg
Partial obstruction (% incidence) [7]: 20%
Total obstruction, compact plug (% incidence) [7]: 20%
Total obstruction, nodular mass (% incidence) [7]: 6.66%
Total obstruction, pimply mass (% incidence) [7]: 13.33%
histological appearance of non obstructed bronchi ([8]; free non obstructed): presence of bronchi having almost normal appearance
histological appearance of obstructed bronchial tract ([8]; obstructed): fully like that of the control animals
